# Assay results taken from patent publication US20230131899A1, “INHIBITORS OF MICROBIALLY INDUCED AMYLOID” (Axial Therapeutics, Inc., priority 2020, published 2023).
# Read-outs that look alike come from different tables or passages of the source.
# Molecular target: T1, E. coli CsgA (Escherichia coli, UniProt P28307)
# T1 construct: made in house; host or cells: E. coli NEB 3016 slyD::kan, pET11d
# Assay: In vitro ThioflavinT assay of CsgA aggregation (CsgA ThT Assay)
# Assay type: biochemical
# Conditions: for remaining activity at 25 µM: compound 25 μM; for remaining activity at 100 µM: compound 100 μM
# In short: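 Purified C-terminal His-tagged CsgA, monomerised by desalting and 30-kDa filtration, at 2-20 μM with 20-40 μM ThT in 50 mM potassium phosphate pH 7.3, 1% DMSO, compounds 3.125-200 uM; room temperature, fluorescence (ex 438/em 495 nm) read every 15 min. Background-subtracted signal expressed as percent inhibition versus vehicle at 6-6.5 or 8-9 h, or as percent control AUC.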
# [1] = read-out: CsgA ThT Assay (2 μM CsgA) % Control Bmax 25 μM, activity range, class symbol, CsgA 2 μM, white plates
# [2] = read-out: CsgA ThT Assay (2 μM CsgA) % Control Bmax 25 μM, mean Bmax as percentage of DMSO control, CsgA 2 μM, white plates
# [3] = read-out: CsgA ThT Assay (2 μM CsgA) % Control Bmax 100 μM, activity range, class symbol, CsgA 2 μM, white plates
# [4] = read-out: CsgA ThT Assay (2 μM CsgA) % Control Bmax 100 μM, mean Bmax as percentage of DMSO control, CsgA 2 μM, white plates
# [5] = read-out: CsgA ThT Assay (10 μM CsgA) % Control AUC at 1005 minutes, 25 μM (activity range), CsgA 10 μM, black plates, 1005 minutes, class symbol
# [6] = read-out: CsgA ThT Assay (10 μM CsgA) % Control AUC at 1005 minutes, 25 μM, mean AUC as % of DMSO control, CsgA 10 μM, black plates, 1005 minutes
# [7] = read-out: CsgA ThT Assay (10 μM CsgA) % Control AUC at 1005 minutes, 100 μM (activity range), CsgA 10 μM, black plates, 1005 minutes, class symbol
# [8] = read-out: CsgA ThT Assay (10 μM CsgA) % Control AUC at 1005 minutes, 100 μM, mean AUC as % of DMSO control, CsgA 10 μM, black plates, 1005 minutes
# T1 sequence (P28307 23-151): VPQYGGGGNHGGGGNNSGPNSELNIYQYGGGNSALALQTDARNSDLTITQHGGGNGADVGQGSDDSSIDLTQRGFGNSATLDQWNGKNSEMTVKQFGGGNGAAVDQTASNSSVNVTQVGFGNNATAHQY
Structure (SMILES),remaining activity at 25 µM [1] [%],remaining activity at 25 µM [2] [%],remaining activity at 100 µM [3] [%],remaining activity at 100 µM [4] [%],remaining activity at 25 µM [5] [%],remaining activity at 25 µM [6] [%],remaining activity at 100 µM [7] [%],remaining activity at 100 µM [8] [%]
"CCc1c(Cc2cccc3ccccc23)c(-c2cccc(C(F)(F)F)c2)c2n(c1=O)C(C(=O)O)CN2Cc1ccccc1 (stereo not drawn) [Compound 140, 1-benzyl-6-ethyl-7-(naphthalen-1-ylmethyl)-5-oxo-8-(3-(trifluoromethyl)phenyl)-1,2,3,5-tetrahydroimidazo[1,2-a]pyridine-3-carboxylic acid]",31 to 60,35,11 to 31,19,–,–,–,–
"CC(C)N1CC(C(=O)O)n2c1c(-c1cccc(C(F)(F)F)c1)c(Cc1cccc3ccccc13)c(Cl)c2=O (stereo not drawn) [Compound 179, 6-chloro-1-isopropyl-7-(naphthalen-1-ylmethyl)-5-oxo-8-(3-(trifluoromethyl)phenyl)-1,2,3,5-tetrahydroimidazo[1,2-a]pyridine-3-carboxylic acid]",> 60,65,31 to 60,48,–,–,–,–
"CCCN1CC(C(=O)O)n2c(c(-c3cccc(C(F)(F)F)c3)c(Cc3cccc4ccccc34)c(C(N)=O)c2=O)S1(=O)=O (stereo not drawn) [Compound 172, 7-carbamoyl-8-(naphthalen-1-ylmethyl)-6-oxo-2-propyl-9-(3-(trifluoromethyl)phenyl)-3,4-dihydro-2H,6H-pyrido[1,2-e][1,2,5]thiadiazine-4-carboxylic acid 1,1-dioxide]",11 to 31,26,11 to 31,17,–,–,–,–
"O=C(O)C1CN(CCCCCO)c2c(-c3cccc(C(F)(F)F)c3)c(Cc3cccc4ccccc34)c(Cl)c(=O)n21 (stereo not drawn) [Compound 199, 6-chloro-1-(5-hydroxypentyl)-7-(naphthalen-1-ylmethyl)-5-oxo-8-(3-(trifluoromethyl)phenyl)-1,2,3,5-tetrahydroimidazo[1,2-a]pyridine-3-carboxylic acid]",> 60,83,> 60,99,–,–,–,–
"Cn1c(=O)c2c(nc(CCCCN3CC(C(=O)O)n4c(c(-c5cccc(C(F)(F)F)c5)c(Cc5cccc6ccccc56)cc4=O)S3(=O)=O)n2C)n(C)c1=O (stereo not drawn) [Compound 044, 8-(naphthalen-1-ylmethyl)-6-oxo-9-(3-(trifluoromethyl)phenyl)-2-(4-(1,3,7-trimethyl-2,6-dioxo-2,3,6,7-tetrahydro-1H-purin-8-yl)butyl)-3,4-dihydro-2H,6H-pyrido[1,2-e][1,2,5]thiadiazine-4-carboxylic acid 1,1-dioxide]",–,–,–,–,31 to 60,55,31 to 60,42
"CC1(C)Sc2c(-c3cccc(C(F)(F)F)c3)c(Cc3cccc4ccccc34)nc(=O)n2C1C(=O)O (stereo not drawn) [Compound 059, 2,2-dimethyl-7-(naphthalen-1-ylmethyl)-5-oxo-8-(3-(trifluoromethyl)phenyl)-2,3-dihydro-5H-thiazolo[3,2-c]pyrimidine-3-carboxylic acid]",–,–,–,–,> 60,63,11 to 31,22
"O=C(O)C1CN(Cc2ccc(CO)cc2)c2c(-c3cccc(C(F)(F)F)c3)c(Cc3cccc4ccccc34)c(Cl)c(=O)n21 (stereo not drawn) [Compound 170, 6-chloro-1-(4-(hydroxymethyl)benzyl)-7-(naphthalen-1-ylmethyl)-5-oxo-8-(3-(trifluoromethyl)phenyl)-1,2,3,5-tetrahydroimidazo[1,2-a]pyridine-3-carboxylic acid]",> 60,62,31 to 60,38,–,–,–,–
"O=C(O)C1CN(Cc2ccccc2)c2c(-c3cccc(Br)c3)c(Cc3cccc4ccccc34)c(Cl)c(=O)n21 (stereo not drawn) [Compound 198, 1-benzyl-8-(3-bromophenyl)-6-chloro-7-(naphthalen-1-ylmethyl)-5-oxo-1,2,3,5-tetrahydroimidazo[1,2-a]pyridine-3-carboxylic acid]",> 60,61,31 to 60,39,–,–,–,–
"O=C(O)C1n2c(c(-c3cccc(C(F)(F)F)c3)c(Cc3cccc4ccccc34)nc2=O)SC12CCCC2 (stereo not drawn) [Compound 053, 7′-(naphthalen-1-ylmethyl)-5′-oxo-8′-(3-(trifluoromethyl)phenyl)-3′H,5′H-spiro[cyclopentane-1,2′-thiazolo[3,2-c]pyrimidine]-3′-carboxylic acid]",–,–,–,–,31 to 60,39,11 to 31,12
